Data reported in patent publication US20230064990A1, “DOSING REGIMENS AND METHODS FOR TREATING CANCER” (Panbela Therapeutics, Inc., priority 2020, published 2023).
Read-outs that look alike come from different tables or passages of the source.

Assay: Phase 1a/1b study in combination with G and A, pharmacokinetics
Type: in vivo, human
Conditions: for Cmax / Tmax: human, plasma, subcutaneous
Procedure: G (1000 mg/m^2) and A (125 mg/m^2) were administered intravenously on Days 1, 8, and 15 of each cycle. […] PK was evaluated on day 1 of cycle 1. Efficacy was assessed by CA19-9 levels, objective response was assessed by RECIST criteria, progression-free survival (PFS) and overall survival (OS).
This is a multicenter, open label, Phase 1a/1b study to evaluate to evaluate the safety, tolerability, pharmacokinetics and efficacy of (S,S)-(HO)2DEHSPM when administered in combination with G and A as first-line therapy in pancreatic cancer patients previously untreated for metastatic disease. The objective was to determine a recommended Phase 2 dose. Using a modified 3+3 dose escalation scheme, cohorts of subjects were dosed with subcutaneous injections of (S,S)-(HO)2DEHSPM at 0.2, 0.4 or 0.6 mg/kg days 1-5 of each 28-day cycle. Gemcitabine (1000 mg/m^2) and A (125 mg/m^2) were administered intravenously on Days 1, 8, and 15 of each cycle. […] PK was evaluated on day 1 of cycle 1. Efficacy was assessed by objective response rate (ORR) using RECIST criteria and by changes in CA19-9 levels. Subjects were treated until disease progression or the development of dose-limiting toxicity. Based upon initial safety findings and preliminary signals of efficacy, the protocol was amended to evaluate progression-free survival (PFS) and overall survival (OS) and expand the study to up to 36 subjects at the recommended Phase 2 dose. To date, 20 subjects were enrolled in cohorts 1-3 and evaluated for dose limiting toxicity and early signals of efficacy.

SMILES: CCNCCC(O)CNCCCCNCC(O)CCNCC [(S,S)-(HO)2DEHSPM, (6S,15S)-3,8,13,18-teraazaicosane-6,15-diol]
- PK parameters (cohort 1 (0.2 mg/kg), day 1 of cycle 1): below the limits of detection at most time points
- Cmax (sc, Cohort 1 (0.2 mg/kg) N=4, day 1 of cycle 1, read-out: Cmax Mean): 26.6 ng/mL
- Cmax (sc, Cohort 2 (0.4 mg/kg) N=7, day 1 of cycle 1, read-out: Cmax Mean): 115 ng/mL
- Cmax (sc, Cohort 3 (0.6 mg/kg) N=5, day 1 of cycle 1, read-out: Cmax Mean): 147 ng/mL
- Tmax (Cohort 1 (0.2 mg/kg) N=4): 30 min
- Cmax (Cohort 1 (0.2 mg/kg) N=4, read-out: Cmax Range): 13.2 to 41.6 ng/mL
- Tmax (Cohort 2 (0.4 mg/kg) N=7): 30 min
- Cmax (Cohort 2 (0.4 mg/kg) N=7, read-out: Cmax Range): 77.1 to 167 ng/mL
- Tmax (Cohort 3 (0.6 mg/kg) N=5): 30 min
- Cmax (Cohort 3 (0.6 mg/kg) N=5, read-out: Cmax Range): 91.9 to 195 ng/mL
